Test results reported in ChEMBL document CHEMBL5724914, “Linking interpersonal differences in gut microbiota composition and drug biotransformation activity” (2024).

What was measured:
[1] = human gut metagenome, 24 h, 2 µM
[2] = (§1) The drug is tested on WLS-310 corresponding to human gut metagenome with ENA study accession number: PRJEB37062 and ENA sample accession number: ERS12561785 for biotransformation under anaerobic condition. The drug concentrations were measured over 9 timepoints collected between 0 and 24 hours of incubation by liquid-chromatography-coupled mass spectrometry (LC–MS); conditions: 2 µM
[3] = human gut metagenome, 24 h, 2 µM; remark: listed apart in the source
[4] = as §1, with “WLS-240” for “WLS-310”, “ERS12561773” for “ERS12561785”; conditions: 2 µM
[5] = human gut metagenome, 24 h, 2 µM; remark: listed apart in the source
[6] = human gut metagenome, 24 h, 2 µM; remark: listed apart in the source
[7] = human gut metagenome, 24 h, 2 µM; remark: listed apart in the source
[8] = as §1, with “Z-022” for “WLS-310”, “mouse” for “human”, “ERS12561821” for “ERS12561785”; conditions: 2 µM
[9] = as §1, with “WLS-086” for “WLS-310”, “ERS12561752” for “ERS12561785”; conditions: 2 µM
[10] = human gut metagenome, 24 h, 2 µM; remark: listed apart in the source
[11] = as §1, with “Z-017” for “WLS-310”, “mouse” for “human”, “ERS12561816” for “ERS12561785”; conditions: 2 µM
[12] = as §1, with “Z-006” for “WLS-310”, “mouse” for “human”, “ERS12561806” for “ERS12561785”; conditions: 2 µM
[13] = as §1, with “Z-025” for “WLS-310”, “rabbit” for “human”, “ERS12561824” for “ERS12561785”; conditions: 2 µM
[14] = human gut metagenome, 24 h, 2 µM; remark: listed apart in the source
[15] = as §1, with “WLS-038” for “WLS-310”, “ERS12561745” for “ERS12561785”; conditions: 2 µM
[16] = as §1, with “Z-004” for “WLS-310”, “to” for “to human gut”, “ERS12561804” for “ERS12561785”; conditions: 2 µM
[17] = as §1, with “Z-028” for “WLS-310”, “mouse” for “human”, “ERS12561827” for “ERS12561785”; conditions: 2 µM
[18] = as §1, with “Z-013” for “WLS-310”, “rabbit” for “human”, “ERS12561813” for “ERS12561785”; conditions: 2 µM
[19] = as §1, with “Z-011” for “WLS-310”, “mouse” for “human”, “ERS12561811” for “ERS12561785”; conditions: 2 µM
[20] = as §1, with “Z-012” for “WLS-310”, “to” for “to human gut”, “ERS12561812” for “ERS12561785”; conditions: 2 µM
Note: call rule not given here.

With O=C1CC2(CCCC2)CC(=O)N1CCCCN1CCN(c2ncccn2)CC1 [BUSPIRONE] the “Bacterial Biotransformation” value [1] was “Compound NOT metabolized”, the “Bacterial Biotransformation” value [2] was “Compound metabolized” and the “Bacterial Biotransformation” value [3] was “Compound metabolized”. For the same compound, the “Bacterial Biotransformation” value [4] was “Compound metabolized”, the “Bacterial Biotransformation” value [5] was “Compound metabolized” and the “Bacterial Biotransformation” value [6] was “Compound metabolized”. The “Bacterial Biotransformation” value [7] was “Compound NOT metabolized”, the “Bacterial Biotransformation” value [8] was “Compound NOT metabolized” and the “Bacterial Biotransformation” value [9] was “Compound metabolized”. The “Bacterial Biotransformation” value [10] was “Compound metabolized”, the “Bacterial Biotransformation” value [11] was “Compound NOT metabolized” and the “Bacterial Biotransformation” value [12] was “Compound NOT metabolized”. For the same compound, the “Bacterial Biotransformation” value [13] was “Compound NOT metabolized”, the “Bacterial Biotransformation” value [14] was “Compound NOT metabolized” and the “Bacterial Biotransformation” value [15] was “Compound NOT metabolized”. The “Bacterial Biotransformation” value [16] was “Compound NOT metabolized”, the “Bacterial Biotransformation” value [17] was “Compound NOT metabolized” and the “Bacterial Biotransformation” value [18] was “Compound NOT metabolized”. For the same compound, the “Bacterial Biotransformation” value [19] was “Compound NOT metabolized” and the “Bacterial Biotransformation” value [20] was “Compound NOT metabolized”.

For COC(=O)C(c1ccccc1)C1CCCCN1 (stereo not given) [METHYLPHENIDATE], the “Bacterial Biotransformation” value [1] was “Compound NOT metabolized”, the “Bacterial Biotransformation” value [2] was “Compound NOT metabolized” and the “Bacterial Biotransformation” value [3] was “Compound NOT metabolized”. For the same compound, the “Bacterial Biotransformation” value [4] was “Compound metabolized”, the “Bacterial Biotransformation” value [5] was “Compound NOT metabolized” and the “Bacterial Biotransformation” value [6] was “Compound NOT metabolized”. For the same compound, the “Bacterial Biotransformation” value [7] was “Compound NOT metabolized”, the “Bacterial Biotransformation” value [8] was “Compound NOT metabolized” and the “Bacterial Biotransformation” value [9] was “Compound NOT metabolized”. The “Bacterial Biotransformation” value [10] was “Compound NOT metabolized”, the “Bacterial Biotransformation” value [11] was “Compound NOT metabolized” and the “Bacterial Biotransformation” value [12] was “Compound NOT metabolized”. For the same compound, the “Bacterial Biotransformation” value [13] was “Compound NOT metabolized”, the “Bacterial Biotransformation” value [14] was “Compound NOT metabolized” and the “Bacterial Biotransformation” value [15] was “Compound NOT metabolized”. The “Bacterial Biotransformation” value [16] was “Compound metabolized”, the “Bacterial Biotransformation” value [17] was “Compound NOT metabolized” and the “Bacterial Biotransformation” value [18] was “Compound NOT metabolized”. The “Bacterial Biotransformation” value [19] was “Compound NOT metabolized” and the “Bacterial Biotransformation” value [20] was “Compound NOT metabolized”.

With OCCN(CCO)c1nc(N2CCCCC2)c2nc(N(CCO)CCO)nc(N3CCCCC3)c2n1 [DIPYRIDAMOLE] the “Bacterial Biotransformation” value [1] was “Compound NOT metabolized”, the “Bacterial Biotransformation” value [2] was “Compound metabolized” and the “Bacterial Biotransformation” value [3] was “Compound NOT metabolized”. The “Bacterial Biotransformation” value [4] was “Compound metabolized”, the “Bacterial Biotransformation” value [5] was “Compound NOT metabolized” and the “Bacterial Biotransformation” value [6] was “Compound NOT metabolized”. The “Bacterial Biotransformation” value [7] was “Compound NOT metabolized”, the “Bacterial Biotransformation” value [8] was “Compound metabolized” and the “Bacterial Biotransformation” value [9] was “Compound metabolized”. The “Bacterial Biotransformation” value [10] was “Compound metabolized”, the “Bacterial Biotransformation” value [11] was “Compound NOT metabolized” and the “Bacterial Biotransformation” value [12] was “Compound NOT metabolized”. For the same compound, the “Bacterial Biotransformation” value [13] was “Compound NOT metabolized”, the “Bacterial Biotransformation” value [14] was “Compound metabolized” and the “Bacterial Biotransformation” value [15] was “Compound NOT metabolized”. The “Bacterial Biotransformation” value [16] was “Compound NOT metabolized”, the “Bacterial Biotransformation” value [17] was “Compound NOT metabolized” and the “Bacterial Biotransformation” value [18] was “Compound NOT metabolized”. The “Bacterial Biotransformation” value [19] was “Compound NOT metabolized” and the “Bacterial Biotransformation” value [20] was “Compound NOT metabolized”.

For CCN(CC)C(=O)C1(c2ccccc2)CC1CN (stereo not given), the “Bacterial Biotransformation” value [1] was “Compound NOT metabolized”, the “Bacterial Biotransformation” value [2] was “Compound NOT metabolized” and the “Bacterial Biotransformation” value [3] was “Compound NOT metabolized”. For the same compound, the “Bacterial Biotransformation” value [4] was “Compound NOT metabolized”, the “Bacterial Biotransformation” value [5] was “Compound NOT metabolized” and the “Bacterial Biotransformation” value [6] was “Compound NOT metabolized”. For the same compound, the “Bacterial Biotransformation” value [7] was “Compound NOT metabolized”, the “Bacterial Biotransformation” value [8] was “Compound NOT metabolized” and the “Bacterial Biotransformation” value [9] was “Compound NOT metabolized”. For the same compound, the “Bacterial Biotransformation” value [10] was “Compound NOT metabolized”, the “Bacterial Biotransformation” value [11] was “Compound NOT metabolized” and the “Bacterial Biotransformation” value [12] was “Compound NOT metabolized”. The “Bacterial Biotransformation” value [13] was “Compound NOT metabolized”, the “Bacterial Biotransformation” value [14] was “Compound NOT metabolized” and the “Bacterial Biotransformation” value [15] was “Compound NOT metabolized”. The “Bacterial Biotransformation” value [16] was “Compound NOT metabolized”, the “Bacterial Biotransformation” value [17] was “Compound NOT metabolized” and the “Bacterial Biotransformation” value [18] was “Compound NOT metabolized”. For the same compound, the “Bacterial Biotransformation” value [19] was “Compound NOT metabolized” and the “Bacterial Biotransformation” value [20] was “Compound NOT metabolized”.

In the case of COc1cc2nc(N3CCN(C(=O)C4CCCO4)CC3)nc(N)c2cc1OC (stereo not given) [TERAZOSIN], the “Bacterial Biotransformation” value [1] was “Compound NOT metabolized”, the “Bacterial Biotransformation” value [2] was “Compound metabolized” and the “Bacterial Biotransformation” value [3] was “Compound metabolized”. For the same compound, the “Bacterial Biotransformation” value [4] was “Compound metabolized”, the “Bacterial Biotransformation” value [5] was “Compound NOT metabolized” and the “Bacterial Biotransformation” value [6] was “Compound metabolized”. The “Bacterial Biotransformation” value [7] was “Compound NOT metabolized”, the “Bacterial Biotransformation” value [8] was “Compound NOT metabolized” and the “Bacterial Biotransformation” value [9] was “Compound metabolized”. For the same compound, the “Bacterial Biotransformation” value [10] was “Compound metabolized”, the “Bacterial Biotransformation” value [11] was “Compound NOT metabolized” and the “Bacterial Biotransformation” value [12] was “Compound NOT metabolized”. The “Bacterial Biotransformation” value [13] was “Compound NOT metabolized”, the “Bacterial Biotransformation” value [14] was “Compound metabolized” and the “Bacterial Biotransformation” value [15] was “Compound NOT metabolized”. The “Bacterial Biotransformation” value [16] was “Compound NOT metabolized”, the “Bacterial Biotransformation” value [17] was “Compound NOT metabolized” and the “Bacterial Biotransformation” value [18] was “Compound NOT metabolized”. For the same compound, the “Bacterial Biotransformation” value [19] was “Compound metabolized” and the “Bacterial Biotransformation” value [20] was “Compound NOT metabolized”.

With CC(C)[C@H]1CC[C@H](C(=O)N[C@H](Cc2ccccc2)C(=O)O)CC1 [NATEGLINIDE] the “Bacterial Biotransformation” value [1] was “Compound metabolized”, the “Bacterial Biotransformation” value [2] was “Compound metabolized” and the “Bacterial Biotransformation” value [3] was “Compound metabolized”. For the same compound, the “Bacterial Biotransformation” value [4] was “Compound metabolized”, the “Bacterial Biotransformation” value [5] was “Compound metabolized” and the “Bacterial Biotransformation” value [6] was “Compound metabolized”. For the same compound, the “Bacterial Biotransformation” value [7] was “Compound metabolized”, the “Bacterial Biotransformation” value [8] was “Compound NOT metabolized” and the “Bacterial Biotransformation” value [9] was “Compound metabolized”. For the same compound, the “Bacterial Biotransformation” value [10] was “Compound metabolized”, the “Bacterial Biotransformation” value [11] was “Compound NOT metabolized” and the “Bacterial Biotransformation” value [12] was “Compound NOT metabolized”. For the same compound, the “Bacterial Biotransformation” value [13] was “Compound metabolized”, the “Bacterial Biotransformation” value [14] was “Compound metabolized” and the “Bacterial Biotransformation” value [15] was “Compound metabolized”. The “Bacterial Biotransformation” value [16] was “Compound NOT metabolized”, the “Bacterial Biotransformation” value [17] was “Compound NOT metabolized” and the “Bacterial Biotransformation” value [18] was “Compound metabolized”. For the same compound, the “Bacterial Biotransformation” value [19] was “Compound metabolized” and the “Bacterial Biotransformation” value [20] was “Compound NOT metabolized”.

With CCN(CC)CCNC(=O)c1ccc(NC(C)=O)cc1 [ACECAINIDE] the “Bacterial Biotransformation” value [1] was “Compound NOT metabolized”, the “Bacterial Biotransformation” value [2] was “Compound metabolized” and the “Bacterial Biotransformation” value [3] was “Compound NOT metabolized”. For the same compound, the “Bacterial Biotransformation” value [4] was “Compound metabolized”, the “Bacterial Biotransformation” value [5] was “Compound NOT metabolized” and the “Bacterial Biotransformation” value [6] was “Compound metabolized”. For the same compound, the “Bacterial Biotransformation” value [7] was “Compound NOT metabolized”, the “Bacterial Biotransformation” value [8] was “Compound NOT metabolized” and the “Bacterial Biotransformation” value [9] was “Compound metabolized”. For the same compound, the “Bacterial Biotransformation” value [10] was “Compound NOT metabolized”, the “Bacterial Biotransformation” value [11] was “Compound NOT metabolized” and the “Bacterial Biotransformation” value [12] was “Compound NOT metabolized”. The “Bacterial Biotransformation” value [13] was “Compound NOT metabolized”, the “Bacterial Biotransformation” value [14] was “Compound NOT metabolized” and the “Bacterial Biotransformation” value [15] was “Compound NOT metabolized”. For the same compound, the “Bacterial Biotransformation” value [16] was “Compound NOT metabolized”, the “Bacterial Biotransformation” value [17] was “Compound NOT metabolized” and the “Bacterial Biotransformation” value [18] was “Compound NOT metabolized”. The “Bacterial Biotransformation” value [19] was “Compound NOT metabolized” and the “Bacterial Biotransformation” value [20] was “Compound NOT metabolized”.
